Assay results as given in patent US4284553A, “Reversible method for covalent immobilization of biochemicals” (North Carolina State University at Raleigh, priority 1980, dated 1981).

How the values were obtained:
[1] = molecular target: T1, α-Chymotrypsin (EC 3.4.21.1) from bovine pancreas, immobilized on thioester-derivatized glass beads (20.2 mg/g) (Bos taurus, UniProt P00766); experiment: Hydrolysis of BzTyrOEt by α-chymotrypsin immobilized on thioester-glass beads (20.2 mg/g); format: biochemical; parameters: unit not given here; conditions: substrate BzTyrOEt; immobilized (20.2 mg/g)
T1 construct: purchased Miles Laboratories or Sigma Chemical Co; host or cells: bovine pancreas
Description: (§1) α-Chymotrypsin (EC 3.4.21.1) from bovine pancreas was obtained as a lyophilized powder from Miles Laboratories or Sigma Chemical Co. and used without further purification. All chemicals used were reagent grade or better.
(§2) Succinamidopropyl-derivatized glass was converted to the acyl chloride derivative by treatment with anhydrous thionyl chloride. Care was taken to prevent the introduction of water in each of these reaction steps. The reacion mixture was held at 70° C. for 1 hour. The solution was then cooled to 25° C., and excess thionyl chloride was drained from the beads, which were then rinsed thoroughly with dry dichloromethane. The beads were next covered with anhydrous 3-mercaptopropionic acid and again held at 70° C. for 1 hour. Following reaction, the excess acid was drained, and the derivatized beads were again washed with dichloromethane. […]
(§3) Hydrolysis of benzoly-L-tyrosine ethyl ester (BzTyrOEt) by α-chymotrypsin was assayed according to the method of Hummel, B. C. […] Reaction was initiated by addition of soluble enzyme to the reaction mixture, and reaction progress was monitored spectrophotometrically at 256 nm. […] Initial slopes were read directly from the recorder chart and kinetic constants were evaluated using a computer program to fit data directly to velocity versus substrate concentration curves.

[2] = molecular target: T2, α-Chymotrypsin (EC 3.4.21.1) from bovine pancreas, immobilized on thioester-derivatized glass beads (9.5 mg/g) (Bos taurus, UniProt P00766); experiment: Hydrolysis of BzTyrOEt by α-chymotrypsin immobilized on thioester-glass beads (9.5 mg/g, after brief hydroxylamine treatment); format: biochemical; parameters: unit not given here; conditions: substrate BzTyrOEt; immobilized (9.5 mg/g)
T2 construct: purchased Miles Laboratories or Sigma Chemical Co; host or cells: bovine pancreas
Description: as §1, §2, §3

[3] = tested on: CCOC(=O)[C@H](Cc1ccc(O)cc1)NC(=O)c1ccccc1; experiment: purified protein, by the assay type; conditions: other: substrate BzTyrOEt

## CCOC(=O)[C@H](Cc1ccc(O)cc1)NC(=O)c1ccccc1 [BzTyrOEt, benzoly-L-tyrosine ethyl ester]
[1]
  kcat /Km (app): 0.9
[2]
  kcat /Km (app): 1.0

## α-Chymotrypsin (EC 3.4.21.1) from bovine pancreas, native soluble enzyme before immobilization (Bos taurus)
[3]; soluble enzyme before immobilization
  Km: 2.74 mM

## α-Chymotrypsin (EC 3.4.21.1) from bovine pancreas, soluble enzyme released by hydroxylamine (thioacylated, about three chains per molecule) (Bos taurus)
[3]; soluble enzyme released by hydroxylamine, pH 7.0
  Km: 3.35 mM
